Measured values reported in patent publication US6706663B2, “Herbicidal 3-heterocyclic substituted benzisothiazole and benzisoxazole compounds” (Wyeth, priority 2000, dated 2004).

Legend:
[1] = tested on: CHEAL (Chenopodium album); assay: Postemergence herbicidal evaluation; assay type: in vivo, L.; conditions: postemergence
In short: (§1)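 Seedlings grown for about two weeks were sprayed postemergence and then kept under standard greenhouse care. Injury was rated visually 4–5 weeks after treatment on a 0–9 scale against untreated controls, and ratings from repeat tests were averaged.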

[2] = tested on: CASOB (Cassia obtusifolia); assay: Postemergence herbicidal evaluation; assay type: in vivo, L.; conditions: postemergence
In short: as §1

[3] = tested on: AMBEL (Ambrosia artemisifolia); assay: Postemergence herbicidal evaluation; assay type: in vivo, L.; conditions: postemergence
In short: as §1

[4] = tested on: SAGPY (Sagittaria pygmaea); assay: Flooded paddy, preemergence weed control; assay type: in vivo, L.; conditions: rated 3-4 weeks after treatment, 0-9 rating scale
In short: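 Visual 0–9 ratings versus controls scored stand, vigor, malformation, size, chlorosis and overall appearance. Plants grew from seeds or propagating organs sown 0.5 cm deep in silt loam, with water held 1.5–3 cm above the soil for the whole test under greenhouse care.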

[5] = tested on: ZEAMX (Corn, Field); assay: Postemergence herbicidal evaluation; assay type: in vivo, Zea mays, L.; conditions: postemergence
In short: as §1

[6] = tested on: CHEAL (Chenopodium album); assay: Preemergence herbicidal evaluation; assay type: in vivo, L.; conditions: rated 4-5 weeks after treatment
In short: (§2)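 Seeds mixed with potting soil were planted atop about one inch of soil, then sprayed with test compound in aqueous acetone. Cups were kept in the greenhouse and rated visually 4–5 weeks after treatment on a 0–9 scale against untreated control.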

[7] = tested on: CASOB (Cassia obtusifolia); assay: Preemergence herbicidal evaluation; assay type: in vivo, L.; conditions: rated 4-5 weeks after treatment
In short: as §2

[8] = tested on: AMBEL (Ambrosia artemisifolia); assay: Preemergence herbicidal evaluation; assay type: in vivo, L.; conditions: rated 4-5 weeks after treatment
In short: as §2

[9] = tested on: GLXMAW (Soybean, Williams); assay: Postemergence herbicidal evaluation; assay type: in vivo, Glycine max, (L.) Merr. cv Williams; conditions: postemergence
In short: as §1

[10] = tested on: ABUTH (Abutilon theophrasti); assay: Postemergence herbicidal evaluation; assay type: in vivo, Medic.; conditions: postemergence
In short: as §1

[11] = tested on: ORYSAT (Rice, Tebonnet); assay: Flooded paddy, post-transplant rice tolerance; assay type: in vivo, Oryza sativa, (L.) Tebonnet; conditions: flooded paddy, post-transplant rice, rated 3-4 weeks after treatment, 0-9 rating scale
In short: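 Two ten-day-old seedlings were transplanted into silt loam, flooded and held at 1.5 to 3 cm water above the soil before herbicide treatment. Pots stayed in the greenhouse at that water level. Injury was scored visually on a 0-9 scale versus untreated control.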

[12] = tested on: ECHCG (Echinochloa crus-galli); assay: Postemergence herbicidal evaluation; assay type: in vivo, (L.) Beau; conditions: postemergence
In short: as §1

[13] = tested on: GALAP (Galium aparine); assay: Postemergence herbicidal evaluation; assay type: in vivo; conditions: postemergence
In short: as §1

[14] = tested on: CYPSE (Cyperus serotinus); assay: Flooded paddy, preemergence weed control; assay type: in vivo, Rottb.; conditions: rated 3-4 weeks after treatment, 0-9 rating scale
In short: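 Seeds or propagules were planted 0.5 cm deep in silt loam and flooded to 1.5–3 cm. Compounds in 50/50 v/v aqueous/acetone were pipetted into the flood water at about 0.0080 to 0.1250 kg/ha. After 3–4 weeks in the greenhouse, effect was rated visually on a 0–9 scale versus untreated control.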

[15] = tested on: ABUTH (Abutilon theophrasti); assay: Preemergence herbicidal evaluation; assay type: in vivo, Medic.; conditions: rated 4-5 weeks after treatment
[16] = tested on: IPOHE (Ipomoea hederacea); assay: Preemergence herbicidal evaluation; assay type: in vivo, (L.) Jacq.; conditions: rated 4-5 weeks after treatment
[17] = tested on: TRZAWR (Wheat, Winter, cv Riband); assay: Preemergence herbicidal evaluation; assay type: in vivo, Triticum aestivum; conditions: rated 4-5 weeks after treatment
In short: as §2

[18] = tested on: ORYSAT (Rice, Tebonnet); assay: Postemergence herbicidal evaluation; assay type: in vivo, Oryza sativa, (L.) Tebonnet; conditions: postemergence
In short: as §1

[19] = tested on: ORYSAT (Rice, Tebonnet); assay: Preemergence herbicidal evaluation; assay type: in vivo, Oryza sativa, (L.) Tebonnet; conditions: rated 4-5 weeks after treatment

Cn1c(C(F)(F)F)cc(=O)n(-c2ccc3snc(-c4sccc4Cl)c3c2)c1=O [Compound 52, 3-[3-(3-chloro-2-thienyl)-1,2-benzisothiazol-5-yl]-1-methyl-6-(trifluoromethyl)uracil]
CHEAL herbicidal rating ([1]; rate 0.0320 kg/ha): 5.0 | CHEAL herbicidal rating ([1]; rate 0.0620 kg/ha): 5.0 | CHEAL herbicidal rating ([1]; rate 0.1250 kg/ha): 9.0 | CASOB herbicidal rating ([2]; rate 0.0320 kg/ha): 1.0 | CASOB herbicidal rating ([2]; rate 0.0620 kg/ha): 7.0 | CASOB herbicidal rating ([2]; rate 0.1250 kg/ha): 8.0 | AMBEL herbicidal rating ([3]; rate 0.0320 kg/ha): 9.0 | AMBEL herbicidal rating ([3]; rate 0.0620 kg/ha): 9.0 | AMBEL herbicidal rating ([3]; rate 0.1250 kg/ha): 9.0 | herbicidal rating, SAGPY ([4]; rate 0.0080 kg/ha): 0.0 | herbicidal rating, SAGPY ([4]; rate 0.0320 kg/ha): 3.7 | herbicidal rating, SAGPY ([4]; rate 0.1250 kg/ha): 7.7 | ZEAMX herbicidal rating ([5]; rate 0.0320 kg/ha): 3.5 | ZEAMX herbicidal rating ([5]; rate 0.0620 kg/ha): 3.5 | ZEAMX herbicidal rating ([5]; rate 0.1250 kg/ha): 5.0 | Preemergence herbicidal rating CHEAL ([6]; Rate 0.0620 kg/ha): 9.0 | Preemergence herbicidal rating CHEAL ([6]; Rate 0.1250 kg/ha): 9.0 | Preemergence herbicidal rating CHEAL ([6]; Rate 0.2500 kg/ha): 9.0 | Preemergence herbicidal rating CASOB ([7]; Rate 0.0620 kg/ha): 1.0 | Preemergence herbicidal rating CASOB ([7]; Rate 0.1250 kg/ha): 1.0 | Preemergence herbicidal rating CASOB ([7]; Rate 0.2500 kg/ha): 4.0 | Preemergence herbicidal rating AMBEL ([8]; Rate 0.0620 kg/ha): 3.5 | Preemergence herbicidal rating AMBEL ([8]; Rate 0.1250 kg/ha): 8.5 | Preemergence herbicidal rating AMBEL ([8]; Rate 0.2500 kg/ha): 9.0 | GLXMAW herbicidal rating ([9]; rate 0.0320 kg/ha): 7.5 | GLXMAW herbicidal rating ([9]; rate 0.0620 kg/ha): 7.0 | GLXMAW herbicidal rating ([9]; rate 0.1250 kg/ha): 8.5 | ABUTH herbicidal rating ([10]; rate 0.0320 kg/ha): 9.0 | ABUTH herbicidal rating ([10]; rate 0.0620 kg/ha): 9.0 | ABUTH herbicidal rating ([10]; rate 0.1250 kg/ha): 9.0 | herbicidal rating, ORYSAT (rice tolerance) ([11]; rate 0.0080 kg/ha): 1.0 | herbicidal rating, ORYSAT (rice tolerance) ([11]; rate 0.0320 kg/ha): 3.7 | herbicidal rating, ORYSAT (rice tolerance) ([11]; rate 0.1250 kg/ha): 5.7 | ECHCG herbicidal rating ([12]; rate 0.0320 kg/ha): 0.0 | ECHCG herbicidal rating ([12]; rate 0.0620 kg/ha): 1.0 | ECHCG herbicidal rating ([12]; rate 0.1250 kg/ha): 5.0 | GALAP herbicidal rating ([13]; rate 0.0320 kg/ha): 5.0 | GALAP herbicidal rating ([13]; rate 0.0620 kg/ha): 3.0 | GALAP herbicidal rating ([13]; rate 0.1250 kg/ha): 7.0 | herbicidal rating, CYPSE ([14]; rate 0.0320 kg/ha): 9.0 | herbicidal rating, CYPSE ([14]; rate 0.1250 kg/ha): 9.0 | Preemergence herbicidal rating ABUTH ([15]; Rate 0.0620 kg/ha): 9.0 | Preemergence herbicidal rating ABUTH ([15]; Rate 0.1250 kg/ha): 8.5 | Preemergence herbicidal rating ABUTH ([15]; Rate 0.2500 kg/ha): 9.0 | Preemergence herbicidal rating IPOHE ([16]; Rate 0.0620 kg/ha): 2.0 | Preemergence herbicidal rating IPOHE ([16]; Rate 0.1250 kg/ha): 3.0 | Preemergence herbicidal rating IPOHE ([16]; Rate 0.2500 kg/ha): 6.0 | Preemergence herbicidal rating TRZAWR ([17]; Rate 0.0620 kg/ha): 1.0 | Preemergence herbicidal rating TRZAWR ([17]; Rate 0.1250 kg/ha): 1.0 | Preemergence herbicidal rating TRZAWR ([17]; Rate 0.2500 kg/ha): 3.0 | ORYSAT herbicidal rating ([18]; rate 0.0320 kg/ha): 3.0 | ORYSAT herbicidal rating ([18]; rate 0.0620 kg/ha): 3.0 | ORYSAT herbicidal rating ([18]; rate 0.1250 kg/ha): 4.0 | Preemergence herbicidal rating ORYSAT ([19]; Rate 0.0620 kg/ha): 1.0 | Preemergence herbicidal rating ORYSAT ([19]; Rate 0.1250 kg/ha): 1.5 | Preemergence herbicidal rating ORYSAT ([19]; Rate 0.2500 kg/ha): 3.5

Cn1c(C(F)(F)F)cc(=O)n(-c2ccc3snc(C4(C)OCCO4)c3c2)c1=O [Compound 54, 1-methyl-3-[3-(2-methyl-1,3-dioxolan-2-yl)-1,2-benzisothiazol-5-yl]-6-(trifluoromethyl)uracil]
CHEAL herbicidal rating ([1]; rate 0.0320 kg/ha): 5.0 | CHEAL herbicidal rating ([1]; rate 0.0620 kg/ha): 9.0 | CHEAL herbicidal rating ([1]; rate 0.1250 kg/ha): 9.0 | CASOB herbicidal rating ([2]; rate 0.0320 kg/ha): 2.0 | CASOB herbicidal rating ([2]; rate 0.0620 kg/ha): 9.0 | CASOB herbicidal rating ([2]; rate 0.1250 kg/ha): 9.0 | AMBEL herbicidal rating ([3]; rate 0.0320 kg/ha): 9.0 | AMBEL herbicidal rating ([3]; rate 0.0620 kg/ha): 9.0 | AMBEL herbicidal rating ([3]; rate 0.1250 kg/ha): 9.0 | herbicidal rating, SAGPY ([4]; rate 0.0080 kg/ha): 0.0 | herbicidal rating, SAGPY ([4]; rate 0.0320 kg/ha): 7.0 | herbicidal rating, SAGPY ([4]; rate 0.1250 kg/ha): 9.0 | ZEAMX herbicidal rating ([5]; rate 0.0320 kg/ha): 4.0 | ZEAMX herbicidal rating ([5]; rate 0.0620 kg/ha): 4.0 | ZEAMX herbicidal rating ([5]; rate 0.1250 kg/ha): 5.5 | Preemergence herbicidal rating CHEAL ([6]; Rate 0.0620 kg/ha): 9.0 | Preemergence herbicidal rating CHEAL ([6]; Rate 0.1250 kg/ha): 9.0 | Preemergence herbicidal rating CHEAL ([6]; Rate 0.2500 kg/ha): 9.0 | Preemergence herbicidal rating CASOB ([7]; Rate 0.0620 kg/ha): 9.0 | Preemergence herbicidal rating CASOB ([7]; Rate 0.1250 kg/ha): 9.0 | Preemergence herbicidal rating CASOB ([7]; Rate 0.2500 kg/ha): 9.0 | Preemergence herbicidal rating AMBEL ([8]; Rate 0.0620 kg/ha): 9.0 | Preemergence herbicidal rating AMBEL ([8]; Rate 0.1250 kg/ha): 9.0 | Preemergence herbicidal rating AMBEL ([8]; Rate 0.2500 kg/ha): 9.0 | GLXMAW herbicidal rating ([9]; rate 0.0320 kg/ha): 8.0 | GLXMAW herbicidal rating ([9]; rate 0.0620 kg/ha): 8.5 | GLXMAW herbicidal rating ([9]; rate 0.1250 kg/ha): 9.0 | ABUTH herbicidal rating ([10]; rate 0.0320 kg/ha): 9.0 | ABUTH herbicidal rating ([10]; rate 0.0620 kg/ha): 9.0 | ABUTH herbicidal rating ([10]; rate 0.1250 kg/ha): 9.0 | herbicidal rating, ORYSAT (rice tolerance) ([11]; rate 0.0080 kg/ha): 7.0 | herbicidal rating, ORYSAT (rice tolerance) ([11]; rate 0.0320 kg/ha): 8.5 | herbicidal rating, ORYSAT (rice tolerance) ([11]; rate 0.1250 kg/ha): 9.0 | ECHCG herbicidal rating ([12]; rate 0.0320 kg/ha): 1.0 | ECHCG herbicidal rating ([12]; rate 0.0620 kg/ha): 3.0 | ECHCG herbicidal rating ([12]; rate 0.1250 kg/ha): 3.0 | GALAP herbicidal rating ([13]; rate 0.0320 kg/ha): 5.0 | GALAP herbicidal rating ([13]; rate 0.0620 kg/ha): 9.0 | GALAP herbicidal rating ([13]; rate 0.1250 kg/ha): 9.0 | herbicidal rating, CYPSE ([14]; rate 0.0320 kg/ha): 9.0 | herbicidal rating, CYPSE ([14]; rate 0.1250 kg/ha): 9.0 | Preemergence herbicidal rating ABUTH ([15]; Rate 0.0620 kg/ha): 9.0 | Preemergence herbicidal rating ABUTH ([15]; Rate 0.1250 kg/ha): 9.0 | Preemergence herbicidal rating ABUTH ([15]; Rate 0.2500 kg/ha): 9.0 | Preemergence herbicidal rating IPOHE ([16]; Rate 0.0620 kg/ha): 9.0 | Preemergence herbicidal rating IPOHE ([16]; Rate 0.1250 kg/ha): 9.0 | Preemergence herbicidal rating IPOHE ([16]; Rate 0.2500 kg/ha): 9.0 | Preemergence herbicidal rating TRZAWR ([17]; Rate 0.0620 kg/ha): 9.0 | Preemergence herbicidal rating TRZAWR ([17]; Rate 0.1250 kg/ha): 9.0 | Preemergence herbicidal rating TRZAWR ([17]; Rate 0.2500 kg/ha): 9.0 | ORYSAT herbicidal rating ([18]; rate 0.0320 kg/ha): 5.0 | ORYSAT herbicidal rating ([18]; rate 0.0620 kg/ha): 6.5 | ORYSAT herbicidal rating ([18]; rate 0.1250 kg/ha): 7.0 | Preemergence herbicidal rating ORYSAT ([19]; Rate 0.0620 kg/ha): 9.0 | Preemergence herbicidal rating ORYSAT ([19]; Rate 0.1250 kg/ha): 9.0 | Preemergence herbicidal rating ORYSAT ([19]; Rate 0.2500 kg/ha): 9.0
